Experimental data as given in patent US20250170248A1, “SMARCA DEGRADERS AND USES THEREOF” (Kymera Therapeutics, Inc., priority 2021, published 2025).

Tests used:
Format in all cases: cell-based
SMARCA2 [1] = target: T1, SMARCA2 (Homo sapiens, UniProt P51531); experiment: MSD SMARCA2 degradation in A549 cell line; conditions: for Dmax: A549, A549 cells; for Dmax / DC50: 24 h; for DC50: read-out: SMARCA2 MSD A549 degradation 24 h: Average external-Abs DC50
Experimental: Example 10. MSD SMARCA2 Degradation in A549 Cell Line
Cells were seeded into 96-well plates (A549 cells: 2×10^4 cells/well/100 ul media) and incubated overnight. The next day, 200 nL compound were added into the intermediate plate with Echo (Labcyte 550) from source plate containing a 3-fold serial dilution from top concentration of 1 mM. The culture medium was changed with 8 0ul of fresh medium and 80 μL of 2× compound solution was added into the well to make a final concentration of 1000 nM, 333.3 nM, 111.1 nM, 37.04 nM, 12.35 nM, 4.115 nM, 1.372 nM, 0.457 nM, 0.152 nM and 0 nM (DMSO). The wells were mixed and then incubated for 24 hours. The media was aspirated from the cultures and 60 ul pre-chilled PIPA lysis buffer (Boston BioProducts BP-115D) with protease/phosphatase inhibitor (Roche 05892791001/Roche 04906837001) was added into the well to lyze the cells for 20 minutes at 4° C. The MSD plate (L15XA) was coated with 40 uL cell lysate and incubated at 4° C. overnight. The next day, the plate was washed three times with TBST (CST #9997S), 150 ul/well. The MSD plates was blocked with 150 ul blocking buffer per well and shaked for 1 hr at RT, 600 rpm. The blocking buffer was 3% Blocker A (MSD, R93BA-4) in TBST. The MSD plate was washed three times with 150 uL/well of TBST and 25 ul/well of detection antibody (Rabbit anti-SMARCA2/BRM antibody, 100 μg/mL, ab223735) was added at final concentration of 1 μg/mL diluted in 1% Blocking buffer and shaken for 1 hour at RT, 600 rpm. The MSD plate was washed three times with 150 ul/well of TBST and 25 ul/well of SULFO-TAG anti-rabbit antibody (MSD, R32AB-1) was added at final concentration of 1 μg/ml diluted in 1% Blocking buffer and shaken for 1 hour at RT, 600 rpm. The MSD plate was washed three times with 150 uL/well of TBST and 150 ul/well of 2× MSD reading buffer diluted from 4× (MSD, R92TC-2) with water was added. Lastly, the MSD instrument was read.
The letter codes for SMARCA2 degradation potency (DC50) include: A (<10 nM), B (10-50 nM), C (>50-100 nM), and D (>100 nM). The letter codes for the percentage of SMARCA degradation after 24 hours (Dmax %) include: A (>90% degradation), B (>70-90% degradation), C (50-70% degradation), and D (<50% degradation).

SMARCA4 = target: T2, SMARCA4 (Homo sapiens, UniProt P51532); experiment: SMARCA4 Western blot degradation in MV4-11 cells; conditions: for Dmax: MV4-11, MV4-11 cells, read-out: SMARCA4 MSD MV411 degradation 24 h: average Dmax %; for Dmax / DC50: 24 h; for DC50: read-out: SMARCA4 MSD MV411 degradation 24 h: Mean external-Abs DC50
T2 construct: SMARCA2/SMARCA4 protein degradation selectivity in MV4-11 cells; endogenous in cells; host or cells: MV4-11
Experimental: Example 11. SMARCA2 and SMARCA4 Western Blot MV4-11 Degradation
Cells were seeded into 6-well plates (MV4-11:4×10^6 cells/well/1 ml) and 1 ml of 2× compound solution was added into the well to make the final concentration and the plates were mixed well and incubated for 24 hours (No cytotoxicity was observed). The cell were collected with media and spun at 3000 rpm for 5 minutes. The supernatant was aspirated and the well and the cells were washed with cold PBS once and combined for centrifugation again; the supernatant aspirated again. 200 uL pre-chilled RIPA lysis buffer (Boston BioProducts BP-115D) with protease/phosphatase inhibitor (Roche 05892791001/Roche 04906837001) was directly added into the tube to lyze the cells for 20 minutes on ice. The cell lysate were collected into EP tubes and spun at 13000 rpm for 20 minutes and 72 uL supernatant was transferred to a fresh EP tube containing 18 μL of 5× loading buffer (Beyotime Bio P0015) to make the loading samples. The samples were heated to 100° C. for 10 minutes and cooled to RT and microcentrifuged. 20 μL of samples were loaded onto SDS-PAGE gel (Novex, WG1402BOX) and the gel was run at 80 V for 20 minutes and 120 V for 1.5 hours. The samples were electrotransfer to a NC membrane using wet-transfer method with 250 mA for 2.5 hours. The membrane was blocked with LICOR blocking buffer (LI COR,927-50000) for 1 hour. The membrane was washed three times with TBST(CST #9997S), 5 minutes each. Incubation was performed with primary antibody prepared in blocking buffer with 0.1% Tween-20 (Solarbio, P8220) at 4° C. overnight (Anti-SMARCA2/BRM antibody (ab15597) 1:500; Anti-BRG1 antibody [EPR3912](ab108318) 1:1000; Rabbit anti-Bafl80 antibody [EPR15860](Abcam,ab196022) 1:1000; mouse anti-beta-Actin (8H10D10) (CST #3700) 1:10000). The membrane was washed three times with TBST, 5 minutes each. Incubation with secondary antibody was performed for 1 hour at RT (anti-rabbit IgG (Licor,926-32211) 1:5000; anti-mouse IgG (LI-COR, 926-68070) 1:5000). The membrane was washed three times with 5 minutes each and lastly the LiCOR was read.
The letter codes for SMARCA2/4 degradation potency (DC50) include: A (<1 nM), B (1-10 nM), C (>10-100 nM), and D (>100 nM). The letter codes for the percentage of SMARCA2/4 degradation after 24 hours (Dmax %) include: A (>90% degradation), B (>70-90% degradation), C (50-70% degradation), and D (<50% degradation). The letter codes of SMARCA2/4 selectivity include: A (>500 fold), B (>100-500 fold), C (10-100 fold), and D (<10 fold). Table 8. SMARCA2/4 Selectivity Results

SMARCA2 [2] = target: T1, SMARCA2; experiment: SMARCA2 Western blot degradation in MV4-11 cells; design: SMARCA2/SMARCA4 protein degradation selectivity in MV4-11 cells; endogenous in cells; host or cells: MV4-11; conditions: for Dmax: MV4-11, MV4-11 cells, read-out: SMARCA2 MSD MV411 degradation 24 h: average Dmax %; for DC50: read-out: SMARCA2 MSD MV411 degradation 24 h: Mean external-Abs DC50; for Selectivity in MV411: SMARCA2/4 selectivity

T1 sequence (P51531 whole entry): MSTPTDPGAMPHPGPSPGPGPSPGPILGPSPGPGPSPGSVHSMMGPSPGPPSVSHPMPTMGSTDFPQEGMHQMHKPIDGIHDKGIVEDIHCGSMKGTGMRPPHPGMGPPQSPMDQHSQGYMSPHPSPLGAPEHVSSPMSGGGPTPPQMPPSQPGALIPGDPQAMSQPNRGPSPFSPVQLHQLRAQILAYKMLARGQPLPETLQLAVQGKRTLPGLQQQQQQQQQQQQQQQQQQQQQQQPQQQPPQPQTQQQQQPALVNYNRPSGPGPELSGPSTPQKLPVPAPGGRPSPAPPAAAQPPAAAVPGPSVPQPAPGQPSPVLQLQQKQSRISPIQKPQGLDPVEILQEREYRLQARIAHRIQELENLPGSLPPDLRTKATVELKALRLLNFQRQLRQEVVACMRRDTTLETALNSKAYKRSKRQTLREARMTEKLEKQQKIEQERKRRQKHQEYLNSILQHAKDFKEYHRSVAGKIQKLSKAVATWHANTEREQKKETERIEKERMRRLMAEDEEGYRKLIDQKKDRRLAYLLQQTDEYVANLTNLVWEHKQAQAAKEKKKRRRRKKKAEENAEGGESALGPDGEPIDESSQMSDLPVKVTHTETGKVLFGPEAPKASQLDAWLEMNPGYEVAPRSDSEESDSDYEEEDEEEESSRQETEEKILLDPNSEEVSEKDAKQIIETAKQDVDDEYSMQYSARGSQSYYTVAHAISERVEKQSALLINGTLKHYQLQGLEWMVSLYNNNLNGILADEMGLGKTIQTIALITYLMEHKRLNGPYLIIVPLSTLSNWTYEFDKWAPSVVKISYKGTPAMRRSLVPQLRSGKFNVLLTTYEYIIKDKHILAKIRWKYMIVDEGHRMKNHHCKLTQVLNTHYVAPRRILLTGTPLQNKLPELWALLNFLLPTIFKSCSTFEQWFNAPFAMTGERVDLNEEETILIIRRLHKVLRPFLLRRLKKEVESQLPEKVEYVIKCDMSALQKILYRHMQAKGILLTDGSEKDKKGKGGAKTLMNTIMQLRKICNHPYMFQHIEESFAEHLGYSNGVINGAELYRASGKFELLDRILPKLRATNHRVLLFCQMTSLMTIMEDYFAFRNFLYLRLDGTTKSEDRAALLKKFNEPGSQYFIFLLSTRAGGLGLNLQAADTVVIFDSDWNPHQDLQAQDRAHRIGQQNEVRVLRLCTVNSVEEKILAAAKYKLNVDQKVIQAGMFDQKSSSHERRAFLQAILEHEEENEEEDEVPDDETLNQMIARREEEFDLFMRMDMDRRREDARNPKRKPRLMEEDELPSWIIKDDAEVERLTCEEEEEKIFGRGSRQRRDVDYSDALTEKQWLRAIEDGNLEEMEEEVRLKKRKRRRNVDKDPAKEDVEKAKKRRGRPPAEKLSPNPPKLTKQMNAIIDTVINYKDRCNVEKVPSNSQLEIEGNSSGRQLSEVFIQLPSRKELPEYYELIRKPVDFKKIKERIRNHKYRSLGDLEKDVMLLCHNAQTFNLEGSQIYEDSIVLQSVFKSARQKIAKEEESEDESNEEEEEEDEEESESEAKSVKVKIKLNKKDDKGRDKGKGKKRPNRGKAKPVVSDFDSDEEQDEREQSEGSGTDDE
T2 sequence (P51532 whole entry): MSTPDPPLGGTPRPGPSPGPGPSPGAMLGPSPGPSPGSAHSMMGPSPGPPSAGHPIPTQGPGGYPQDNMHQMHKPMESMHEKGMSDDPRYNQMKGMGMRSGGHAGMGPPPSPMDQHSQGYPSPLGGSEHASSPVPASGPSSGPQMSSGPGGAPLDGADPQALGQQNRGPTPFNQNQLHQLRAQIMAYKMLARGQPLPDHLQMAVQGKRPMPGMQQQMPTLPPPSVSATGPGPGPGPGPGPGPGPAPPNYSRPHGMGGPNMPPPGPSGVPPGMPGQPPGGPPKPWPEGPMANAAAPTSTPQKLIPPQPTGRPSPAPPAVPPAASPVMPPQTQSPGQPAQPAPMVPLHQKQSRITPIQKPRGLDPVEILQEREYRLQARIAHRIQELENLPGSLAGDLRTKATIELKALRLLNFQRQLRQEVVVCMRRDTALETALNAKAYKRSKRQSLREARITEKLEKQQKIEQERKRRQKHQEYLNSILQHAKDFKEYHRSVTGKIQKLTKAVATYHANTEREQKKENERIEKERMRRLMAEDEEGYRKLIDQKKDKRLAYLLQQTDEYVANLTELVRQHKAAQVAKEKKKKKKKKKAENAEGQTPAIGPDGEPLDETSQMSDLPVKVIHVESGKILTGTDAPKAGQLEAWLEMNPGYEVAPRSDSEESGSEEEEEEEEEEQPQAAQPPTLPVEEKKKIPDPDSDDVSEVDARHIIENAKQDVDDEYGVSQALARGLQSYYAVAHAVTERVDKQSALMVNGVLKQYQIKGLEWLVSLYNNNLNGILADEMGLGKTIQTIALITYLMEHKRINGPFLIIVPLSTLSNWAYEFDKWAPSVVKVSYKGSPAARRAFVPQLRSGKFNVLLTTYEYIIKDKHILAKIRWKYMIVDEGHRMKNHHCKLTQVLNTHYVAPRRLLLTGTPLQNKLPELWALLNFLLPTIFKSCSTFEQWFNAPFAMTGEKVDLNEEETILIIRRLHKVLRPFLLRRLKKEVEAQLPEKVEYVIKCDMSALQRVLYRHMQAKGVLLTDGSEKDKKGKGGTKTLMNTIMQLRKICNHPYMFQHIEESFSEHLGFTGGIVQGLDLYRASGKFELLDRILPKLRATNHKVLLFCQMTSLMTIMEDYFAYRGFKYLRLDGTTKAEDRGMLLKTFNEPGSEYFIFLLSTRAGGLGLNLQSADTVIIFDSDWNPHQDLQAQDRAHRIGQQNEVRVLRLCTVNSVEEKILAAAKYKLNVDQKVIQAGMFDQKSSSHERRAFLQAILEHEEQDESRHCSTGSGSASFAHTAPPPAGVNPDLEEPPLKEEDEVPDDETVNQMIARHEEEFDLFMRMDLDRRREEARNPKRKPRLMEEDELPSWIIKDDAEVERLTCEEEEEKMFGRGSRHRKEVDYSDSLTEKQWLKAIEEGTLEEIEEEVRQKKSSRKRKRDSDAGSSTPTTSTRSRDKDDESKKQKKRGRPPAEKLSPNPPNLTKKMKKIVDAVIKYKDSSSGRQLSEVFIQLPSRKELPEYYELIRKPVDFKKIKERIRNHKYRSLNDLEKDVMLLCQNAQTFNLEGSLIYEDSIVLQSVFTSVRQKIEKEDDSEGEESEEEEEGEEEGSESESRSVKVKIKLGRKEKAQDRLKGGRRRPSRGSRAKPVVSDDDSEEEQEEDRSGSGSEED

## C#Cc1ccc(CNC(=O)[C@@H]2C[C@@H](O)CN2C(=O)[C@@H](NC(=O)N2CC3(CC(N4CCC(N5CCC(N6CCc7[nH]c8nnc(-c9ccccc9O)cc8c7[C@H]6C)C5)CC4)C3)C2)C(C)(C)C)cc1 (mixture of isomers) [I-188]
SMARCA2 [1]
  Dmax: > 90%
SMARCA2 [1]; A549 cells
  DC50: > 100 nM
SMARCA4
  Dmax: < 50%
SMARCA4; MV4-11 cells
  DC50: > 100 nM
SMARCA2 [2]; 24 h
  Dmax: 50 to 70%
SMARCA2 [2]; MV4-11 cells, 24 h
  DC50: 10 to 100 nM
SMARCA2 [2]; MV4-11 cells
  Selectivity in MV411: C (C (10-100 fold))

## C#Cc1ccc(CNC(=O)[C@@H]2C[C@@H](O)CN2C(=O)[C@@H](NC(=O)N2CCCC(N3CCC(c4cnc(N5CCN6c7cc(-c8ccccc8O)nnc7NC[C@H]6C5)nc4)CC3)C2)C(C)(C)C)cc1 (mixture of isomers) [I-245]
SMARCA2 [1]
  Dmax: 70 to 90%
SMARCA2 [1]; A549 cells
  DC50: > 100 nM
SMARCA4
  Dmax: < 50%
SMARCA4; MV4-11 cells
  DC50: > 100 nM
SMARCA2 [2]; 24 h
  Dmax: 50 to 70%
SMARCA2 [2]; MV4-11 cells, 24 h
  DC50: 10 to 100 nM
SMARCA2 [2]; MV4-11 cells
  Selectivity in MV411: B (B (>100-500 fold))

## Cc1ncsc1-c1ccc(CNC(=O)[C@@H]2C[C@@H](O)CN2C(=O)C(c2cc(OC[C@H]3CC[C@H](N4CCC(c5cnc(N6CCc7[nH]c8nnc(-c9ccccc9O)cc8c7[C@H]6C)nc5)CC4)CC3)no2)C(C)C)cc1 (single isomer, unassigned) [I-1]
SMARCA2 [1]
  Dmax: > 90%
SMARCA2 [1]; A549 cells
  DC50: < 10 nM
SMARCA4
  Dmax: > 90%
SMARCA4; MV4-11 cells
  DC50: 1 to 10 nM
SMARCA2 [2]; 24 h
  Dmax: > 90%
SMARCA2 [2]; MV4-11 cells, 24 h
  DC50: 1 to 10 nM
SMARCA2 [2]; MV4-11 cells
  Selectivity in MV411: D (D (<10 fold))

## Cc1ncsc1-c1ccc(CNC(=O)[C@@H]2C[C@@H](O)CN2C(=O)C(c2cc(OC[C@H]3CC[C@@H](N4CCC(c5cnc(N6CCc7[nH]c8nnc(-c9ccccc9O)cc8c7[C@H]6C)nc5)CC4)CC3)no2)C(C)C)cc1 (single isomer, unassigned) [I-2]
SMARCA2 [1]
  Dmax: 70 to 90%
SMARCA2 [1]; A549 cells
  DC50: 10 to 50 nM
SMARCA4
  Dmax: > 90%
SMARCA4; MV4-11 cells
  DC50: 10 to 100 nM
SMARCA2 [2]; 24 h
  Dmax: > 90%
SMARCA2 [2]; MV4-11 cells, 24 h
  DC50: 1 to 10 nM
SMARCA2 [2]; MV4-11 cells
  Selectivity in MV411: D (D (<10 fold))

## Cc1ncsc1-c1ccc(CNC(=O)[C@@H]2C[C@@H](O)CN2C(=O)[C@@H](NC(=O)[C@H]2CC3(C2)C[C@H](N2CCC(c4ccnc(N5CCN6c7cc(-c8ccccc8O)nnc7NC[C@@H]6C5)n4)CC2)C3)C(C)(C)C)cc1 (single isomer, unassigned) [I-3]
SMARCA2 [1]
  Dmax: 70 to 90%
SMARCA2 [1]; A549 cells
  DC50: > 100 nM
SMARCA4
  Dmax: 50 to 70%
SMARCA4; MV4-11 cells
  DC50: > 100 nM
SMARCA2 [2]; 24 h
  Dmax: 70 to 90%
SMARCA2 [2]; MV4-11 cells, 24 h
  DC50: 1 to 10 nM
SMARCA2 [2]; MV4-11 cells
  Selectivity in MV411: A (A (>500 fold))

## Cc1ncsc1-c1ccc(CNC(=O)[C@@H]2C[C@@H](O)CN2C(=O)[C@@H](NC(=O)[C@H]2CC3(C2)C[C@H](N2CCC(c4ccnc(N5CCN6c7cc(-c8ccccc8O)nnc7NC[C@@H]6C5)n4)CC2)C3)C(C)(C)C)cc1 (single isomer, unassigned) [I-4]
SMARCA2 [1]; A549 cells
  SMARCA2 MSD A549 degradation 24 h: Average Dmax %: C (C (50-70% degradation))
  DC50: > 100 nM
SMARCA4; MV4-11 cells
  SMARCA4 MSD MV411 degradation 24 h: average Dmax %: D (D (<50% degradation))
  DC50: > 100 nM
SMARCA2 [2]; MV4-11 cells, 24 h
  SMARCA2 MSD MV411 degradation 24 h: average Dmax %: B (B (>70-90% degradation))
  DC50: 1 to 10 nM
SMARCA2 [2]; MV4-11 cells
  Selectivity in MV411: B (B (>100-500 fold))
